Test system: LG0567-F671-PDC complex spheroids viability
Experiment: Anticancer human tumor LG0567-F671-PDC patient-derived lung adenocarcinoma cell line growth inhibition [RAS]
Conditions: for viability, T/C: stronger effect = lower value; active = viability on the fitted dose curve at most 10% of control; inactive = the rest
Description: RAS pathway inhibitors in Combinations in Complex Spheroids
A high-throughput screen of multi-cell type tumor spheroids was designed to identify active combinations of RAS pathway inhibitors and targeted small molecules. Complex spheroids include a stromal component modeled by human endothelial cells (HUVEC) and fibroblasts modeled by human mesenchymal stem cells (MSCs). The concentration ranges selected for each drug and investigational agent were based upon clinically achievable concentrations if the clinical Cmax of the agent was known.
Compounds. The drugs and investigational agents: abemaciclib (NSC768073), cobimetinib (NSC768068), divarasib (GDC6063, NSC841802), docetaxel (NSC628503), GDC-1971 (RLY-1971, NSC841576), gemcitabine (NSC613327), inavolisib (NSC800729), ipatasertib (NSC767898), KB-0742 (NSC834161), MRTX-1133 (NSC836407), osimertinib (NSC779217), RMC-4630 (NSC839698), RMC-6236 (NSC851965), RMC-6291 (NSC852671), Ro-3306 (NSC812927), sapanisertib (NSC764658), SN-38 (NSC673596), staurosporine (NSC755774), SY5609 (NSC837396), and tovorafenib (DAY101, NSC766906), were obtained from the National Cancer Institute (NCI) Developmental Therapeutics Program Chemical Repository. The FDA-approved anticancer drug set is available from the NCI Developmental Therapeutics Program. […] The stock solutions were prepared in dimethyl sulfoxide (DMSO, Sigma-Aldrich, St. Louis, MO, cat. D2650) at 800-fold the tested concentration and stored at -70 degrees C prior to their use. All drugs and investigational agents were tested over a range starting from a high concentration at or near the clinical Cmax and decreasing in half-log increments. If the clinical Cmax for an agent had not been determined, the highest concentration tested was 10 microM.
Cell Culture. All cells were maintained in an incubator at 37 degrees C and 5% CO2 with 95% humidity. The PDC lines were cultured according to standard operating procedures established by the NCI PDMR. All PDCs were thawed and cultured in Matrigel-coated flasks prepared with a working solution of 1X Ham's F-12 nutrient mix, without supplementation (Invitrogen, Waltham, MA, cat. 11765054), 100 U/mL penicillin-streptomycin (Invitrogen, cat. 15140122), and 2.5% Matrigel (Corning Inc., Corning, NY, cat. 354248) for the first three passages. The 362531-283-R-J2-PDC and 782815-120-R-J1-PDC lines were cultured in 6C/Colon 1B media, which includes advanced DMEM/F-12 (Thermo Fisher Scientific, cat. 12634028), 10 mM HEPES (Thermo Fisher Scientific, cat. 15630080), 1X GlutaMAX supplement (Thermo Fisher Scientific, cat. 35050061), 0.1 mg/mL primocin (InvivoGen, San Diego, CA, cat. ant-pm-2), 10% defined fetal bovine serum, heat inactivated (HyClone Laboratories Inc., Logan, UT, cat. SH30070.03HI), 50% L-WRN conditioned media (ATCC, cat. CRL-3276), 1.25 mM N-Acetyl-L-cysteine (Sigma-Aldrich, cat. A9165), 10 mM nicotinamide (Sigma-Aldrich, cat. N0636), 1X B-27 supplement (Thermo Fisher Scientific, cat. 17504044), 1X N-2 supplement (Thermo Fisher Scientific, cat. 17502048), 50 ng/mL human EGF (Thermo Fisher Scientific, cat. PHG0311), and 10 microM Y-27632 dihydrochloride (Tocris Bioscience, cat. 1254). The K12877-001-R-J1-PDC line was cultured in 6I media, which includes all 6C/Colon 1B media plus 10 ng/mL human FGF-10 (PeproTech, cat. 100-26), 1 ng/mL human FGF-2 (PeproTech, cat. 100-18B), 1 µM prostaglandin E2 (Tocris Bioscience, cat. 2296), […] hydrocortisone (Sigma-Aldrich, cat. H4001), and […] bovine insulin (Sigma-Aldrich, cat. I6634). The K86415-001-R-J1-PDC line was cultured in 6D media, which includes all 6C/Colon 1B media components minus the L-WRN conditioned media. The 485176-168-R4-J1-PDC was cultured in PANC media, which includes all 6C/Colon 1B media plus 100 ng/mL human FGF-10 (PeproTech, cat. 100-26), 500 nM SB-431542 (Selleckchem, cat. S1067), and 10 nM gastrin (Tocris Bioscience, cat. 3006). […]

[1] = curve of first compound, second compound 0.000949 µM
[2] = curve of first compound, second compound 0.003 µM
[3] = curve of first compound, second compound 0.00949 µM
[4] = curve of first compound, second compound 0.03 µM
[5] = curve of first compound, second compound 0.0949 µM
[6] = curve of first compound, second compound 0.3 µM
[7] = second compound 0.000949 µM, first compound 0.00316 µM
[8] = second compound 0.000949 µM, first compound 0.01 µM
[9] = second compound 0.000949 µM, first compound 0.0316 µM
[10] = second compound 0.000949 µM, first compound 0.1 µM
[11] = second compound 0.000949 µM, first compound 0.316 µM
[12] = second compound 0.000949 µM, first compound 1 µM
[13] = second compound 0.003 µM, first compound 0.00316 µM
[14] = second compound 0.003 µM, first compound 0.01 µM
[15] = second compound 0.003 µM, first compound 0.0316 µM
[16] = second compound 0.003 µM, first compound 0.1 µM
[17] = second compound 0.003 µM, first compound 0.316 µM
[18] = second compound 0.003 µM, first compound 1 µM
[19] = second compound 0.00949 µM, first compound 0.00316 µM
[20] = second compound 0.00949 µM, first compound 0.01 µM
[21] = second compound 0.00949 µM, first compound 0.0316 µM
[22] = second compound 0.00949 µM, first compound 0.1 µM
[23] = second compound 0.00949 µM, first compound 0.316 µM
[24] = second compound 0.00949 µM, first compound 1 µM
[25] = second compound 0.03 µM, first compound 0.00316 µM
[26] = second compound 0.03 µM, first compound 0.01 µM
[27] = second compound 0.03 µM, first compound 0.0316 µM
[28] = second compound 0.03 µM, first compound 0.1 µM
[29] = second compound 0.03 µM, first compound 0.316 µM
[30] = second compound 0.03 µM, first compound 1 µM
[31] = second compound 0.0949 µM, first compound 0.00316 µM
[32] = second compound 0.0949 µM, first compound 0.01 µM
[33] = second compound 0.0949 µM, first compound 0.0316 µM
[34] = second compound 0.0949 µM, first compound 0.1 µM
[35] = second compound 0.0949 µM, first compound 0.316 µM
[36] = second compound 0.0949 µM, first compound 1 µM
[37] = second compound 0.3 µM, first compound 0.00316 µM
[38] = second compound 0.3 µM, first compound 0.01 µM
[39] = second compound 0.3 µM, first compound 0.0316 µM
[40] = second compound 0.3 µM, first compound 0.1 µM
[41] = second compound 0.3 µM, first compound 0.316 µM
[42] = second compound 0.3 µM, first compound 1 µM
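Note: spheroids exposed to compound for seven days before readout.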
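Throughout, for IC50: luminescence signal used as a proxy for viable cells.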

C=CC(=O)N1CCN(c2nc(OCC3CCCN3C)nc3c(F)c(-c4nc(N)cc(C)c4C(F)(F)F)c(Cl)cc23)C(C)C1 (configuration not stated) + CCn1c(-c2cc(N3CCN(C)CC3)cnc2C(C)OC)c2c3cc(ccc31)-c1csc(n1)CC(NC(=O)C1CC1C)C(=O)N1CCCC(N1)C(=O)OCC(C)(C)C2
active: viability, T/C [7] 9.35% | viability, T/C [8] 9.1% | viability, T/C [9] 8% | viability, T/C [10] 8.66% | viability, T/C [11] 7.95% | viability, T/C [12] 7.17% | viability, T/C [13] 5.52% | viability, T/C [14] 6.02% | viability, T/C [15] 5.86% | viability, T/C [16] 7.54% | viability, T/C [17] 7.84% | viability, T/C [18] 6.72% | viability, T/C [19] 5.09% | viability, T/C [20] 4.57% | viability, T/C [21] 5.64% | viability, T/C [22] 4.78% | viability, T/C [23] 5.6% | viability, T/C [24] 4.86% | viability, T/C [25] 3.64% | viability, T/C [26] 3.58% | viability, T/C [27] 3.59% | viability, T/C [28] 3.48% | viability, T/C [29] 4.15% | viability, T/C [30] 3.55% | viability, T/C [31] 3.37% | viability, T/C [32] 3.02% | viability, T/C [33] 2.73% | viability, T/C [34] 2.71% | viability, T/C [35] 2.59% | viability, T/C [36] 3.04% | viability, T/C [37] 2.73% | viability, T/C [38] 2.79% | viability, T/C [39] 2.44% | viability, T/C [40] 2.81% | viability, T/C [41] 2.66% | viability, T/C [42] 2.96%
< 3.16 nM: IC50 [1] | IC50 [2] | IC50 [3] | IC50 [4] | IC50 [5] | IC50 [6]

CCN1CCN(Cc2ccc(Nc3ncc(F)c(-c4cc(F)c5nc(C)n(C(C)C)c5c4)n3)nc2)CC1 + CCn1c(-c2cc(N3CCN(C)CC3)cnc2C(C)OC)c2c3cc(ccc31)-c1csc(n1)CC(NC(=O)C1CC1C)C(=O)N1CCCC(N1)C(=O)OCC(C)(C)C2
< 3.16 nM: IC50 [1] | IC50 [2] | IC50 [3] | IC50 [4] | IC50 [5] | IC50 [6]
active: viability, T/C [19] 6.37% | viability, T/C [20] 6.88% | viability, T/C [21] 6.24% | viability, T/C [22] 6.47% | viability, T/C [23] 7.63% | viability, T/C [24] 14.4% | viability, T/C [25] 4.36% | viability, T/C [26] 4.91% | viability, T/C [27] 4.15% | viability, T/C [28] 4.09% | viability, T/C [29] 5.04% | viability, T/C [30] 8.84% | viability, T/C [31] 3.5% | viability, T/C [32] 3.29% | viability, T/C [33] 2.92% | viability, T/C [34] 2.88% | viability, T/C [35] 3.8% | viability, T/C [36] 6% | viability, T/C [37] 3.07% | viability, T/C [38] 2.94% | viability, T/C [39] 2.53% | viability, T/C [40] 2.95% | viability, T/C [41] 3.25% | viability, T/C [42] 4.38%
inactive: viability, T/C [7] 27.4% | viability, T/C [8] 24.3% | viability, T/C [9] 23.6% | viability, T/C [10] 23.9% | viability, T/C [11] 27.4% | viability, T/C [12] 30.4% | viability, T/C [13] 11.5% | viability, T/C [14] 11.9% | viability, T/C [15] 10.8% | viability, T/C [16] 11.4% | viability, T/C [17] 14.7% | viability, T/C [18] 21.5%

CC1(O)CCCC1n1c(=O)c(C(F)F)cc2cnc(NC3CCN(S(C)(=O)=O)CC3)nc21 (configuration not stated)
inactive: viability, T/C (compound 0.0316 µM) 88.7% [middle of 4 runs] | viability, T/C (compound 0.1 µM) 86.2% [middle of 4 runs] | viability, T/C (compound 0.316 µM) 81.6% [middle of 4 runs] | viability, T/C (compound 1 µM) 91.5% [middle of 4 runs] | viability, T/C (compound 3.16 µM) 93.8% [middle of 4 runs] | viability, T/C (compound 10 µM) 47% [middle of 4 runs]

CCn1c(-c2cccnc2C(C)OC)c2c3cc(ccc31)N1CCOC(CC(NC(=O)C(C(C)C)N(C)C(=O)C3(F)CCN(C(=O)C#CC(C)(C)N(C)C)CC3)C(=O)N3CCCC(N3)C(=O)OCC(C)(C)C2)C1 (configuration not stated)
< 0.949 nM: IC50 (compound alone, run of 08/20/2024)
inactive: viability, T/C (compound 0.000949 µM) 15.2% [middle of 8 runs] | viability, T/C (compound 0.003 µM) 15% [middle of 8 runs] | viability, T/C (compound 0.00949 µM) 15.1% [middle of 7 runs] | viability, T/C (compound 0.03 µM) 13.5% [middle of 8 runs] | viability, T/C (compound 0.0949 µM) 12.2% [middle of 8 runs]
10.3% [middle of 8 runs]: viability, T/C (compound 0.3 µM)

Source: PubChem BioAssay AID2060889 (Molecular Pharmacology Branch, DTP, NCI, 2025)
